Reference: US20050158385A1, “Coating technique for deposition of drug substance on a substrate” (priority 2002, published 2005)

Test: in vitro release (dissolution) of tablets, USP II apparatus
Type: physicochemical
Conditions: tablets from Trial 2 (three strands of PVDF as core), 250 ml 0.1 N HCl, 37° C., paddle 50 rpm
Method: The dimensions of the tablets from both trials were similar, as both trials yielded tablets approximately 3 mm thick. To determine the dose of 2,3:4,5-bis-O-(1-methylethylidene)-β-D-fructopyranose sulfamate in each tablet, the tablet was dissolved in 10 ml H2O/0.1 N HCl 9/1 v/v. The concentration of 2,3:4,5-bis-O-(1-methylethylidene)-β-D-fructopyranose sulfamate was analyzed by HPLC (Waters System with Millenium Software, 2690 Alliance, Waters, Milford, Mass.). A sample of 50 uL is injected into a Zorbax Eclipse (HP, Palo Alto, Calif.) column (XDB-C8, 4.6*150 mm, P/N: 993967.906). The mobile phase consists of H2O/methanol 68/32 w/w at a flow rate of 1.5 mL/min. The concentration was determined with a refractive index detector (Sensitivity 32). The peak retention time is 6.7 minutes and the run takes 14 minutes.
The in vitro release of the tablets made in this example was also determined. Four tablets from Trial 2 were placed in a USP II apparatus (SR8 plus, Hanson, Chatsworth, Calif.) containing 250 ml of 0.1 N HCl at 37° C. and a paddle rotating at 50 rpm. Dissolution was followed up to 1 hour, with samples taken after 5, 15, 30 and 60 minutes. An aliquot of 5 ml was filtered through a PTFE 0.2 micron filter. The sample was not replaced with fresh solvent. The concentration of 2,3:4,5-bis-O-(1-methylethylidene)-β-D-fructopyranose sulfamate was analyzed by HPLC as discussed above.

Question: For CC1(C)O[C@@H]2[C@@H](CO[C@@]3(COS(N)(=O)=O)OC(C)(C)O[C@@H]23)O1 [2,3:4,5-bis-O-(1-methylethylidene)-β-D-fructopyranose sulfamate], which “2,3:4,5-bis-O-(1-methylethylidene)-β-D-fructopyranose sulfamate released” value (after 5 minutes) is on record?
Answer: approximately 4%

Question: What about the “2,3:4,5-bis-O-(1-methylethylidene)-β-D-fructopyranose sulfamate released” value (by 15 minutes) of the same compound?
Answer: about 48%

Question: What about the “2,3:4,5-bis-O-(1-methylethylidene)-β-D-fructopyranose sulfamate released” value (in 30 minutes) of the same compound?
Answer: complete release
